# Values quoted from earlier work, collected in US6551611B2, “Hormone replacement therapy method” (Schering Aktiengesellschaft, priority 1995, dated 2003).
# Details: oral administration
smiles,measurement,value
C[C@]12CC[C@@H]3c4ccc(O)cc4CC[C@H]3[C@@H]1CC[C@@H]2O [estradiol],"bioavailability of estradiol orally, average",5 % of the oral dose
